In ChEMBL document CHEMBL2321700, “Bodilisant-a novel fluorescent, highly affine histamine h3 receptor ligand” (ACS Med Chem Lett, 2013):

Columns and labels:
[1] = target: D(3) dopamine receptor (Homo sapiens, UniProt P35462); assay: Displacement of [3H]spiperone from human dopamine D3 receptor expressed in CHO-K1 cells; type: cell-based
[2] = target: Histamine H1 receptor (Homo sapiens, UniProt P35367); assay: Displacement of [3H]pyrilamine from human histamine H1 receptor expressed in CHO-K1 cells; type: cell-based
[3] = target: Histamine H4 receptor (Homo sapiens, UniProt Q9H3N8); assay: Displacement of [3H]histamine from human histamine H4 receptor expressed in Sf9 cells
[4] = target: D(1B) dopamine receptor (Homo sapiens, UniProt P21918); assay: Displacement of [3H]SCH23390 from human dopamine D5 receptor expressed in HEK cells; type: cell-based, HEK293
[5] = target: D(1A) dopamine receptor (Homo sapiens, UniProt P21728); assay: Displacement of [3H]SCH23390 from human dopamine D1 receptor expressed in HEK cells; type: cell-based, HEK293
[6] = target: D(2) dopamine receptor (Homo sapiens, UniProt P14416); assay: Displacement of [3H]spiperone from human dopamine D2short receptor expressed in CHO-K1 cells; type: cell-based
[7] = target: Histamine H3 receptor (Homo sapiens, UniProt Q9Y5N1); assay: Displacement of [3H]Nalpha-methylhistamine from human recombinant histamine H3 receptor expressed in HEK-293 cells; type: cell-based, HEK293
Sequence of Histamine H3 receptor (Q9Y5N1 whole entry): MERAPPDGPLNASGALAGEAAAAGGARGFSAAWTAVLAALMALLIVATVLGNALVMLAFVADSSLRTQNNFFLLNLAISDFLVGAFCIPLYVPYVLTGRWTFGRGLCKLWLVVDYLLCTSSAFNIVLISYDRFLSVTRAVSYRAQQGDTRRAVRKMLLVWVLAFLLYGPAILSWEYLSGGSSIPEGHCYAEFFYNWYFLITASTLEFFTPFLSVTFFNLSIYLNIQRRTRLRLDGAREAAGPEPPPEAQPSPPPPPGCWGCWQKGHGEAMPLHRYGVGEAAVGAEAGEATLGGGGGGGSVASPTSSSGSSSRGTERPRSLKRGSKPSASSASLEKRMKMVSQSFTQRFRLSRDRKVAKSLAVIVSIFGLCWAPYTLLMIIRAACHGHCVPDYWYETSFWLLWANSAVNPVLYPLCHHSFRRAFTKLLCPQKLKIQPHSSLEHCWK

Sequence of D(1B) dopamine receptor (P21918 whole entry): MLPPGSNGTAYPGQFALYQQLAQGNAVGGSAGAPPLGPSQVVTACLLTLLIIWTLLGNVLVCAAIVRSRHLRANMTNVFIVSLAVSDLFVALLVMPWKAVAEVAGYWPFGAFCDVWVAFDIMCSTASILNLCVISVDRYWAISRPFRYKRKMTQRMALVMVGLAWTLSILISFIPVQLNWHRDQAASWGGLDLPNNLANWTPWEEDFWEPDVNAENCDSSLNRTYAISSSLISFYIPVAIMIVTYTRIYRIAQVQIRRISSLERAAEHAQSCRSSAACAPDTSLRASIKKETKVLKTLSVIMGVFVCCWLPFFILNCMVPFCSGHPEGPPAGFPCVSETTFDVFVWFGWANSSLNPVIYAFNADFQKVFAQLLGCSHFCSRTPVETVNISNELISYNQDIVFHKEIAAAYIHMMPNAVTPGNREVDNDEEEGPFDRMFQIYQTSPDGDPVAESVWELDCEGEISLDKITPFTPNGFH
Sequence of Histamine H4 receptor (Q9H3N8 whole entry): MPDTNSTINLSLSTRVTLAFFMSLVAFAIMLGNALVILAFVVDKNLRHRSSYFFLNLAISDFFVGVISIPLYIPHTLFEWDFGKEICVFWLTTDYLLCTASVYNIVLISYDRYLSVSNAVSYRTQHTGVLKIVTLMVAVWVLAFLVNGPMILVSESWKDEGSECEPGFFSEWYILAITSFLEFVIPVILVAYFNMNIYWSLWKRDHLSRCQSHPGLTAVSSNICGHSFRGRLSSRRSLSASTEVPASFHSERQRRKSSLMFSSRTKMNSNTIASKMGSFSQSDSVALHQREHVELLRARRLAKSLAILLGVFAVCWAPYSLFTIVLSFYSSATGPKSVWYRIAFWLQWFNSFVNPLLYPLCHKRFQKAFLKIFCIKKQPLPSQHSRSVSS
Sequence of D(2) dopamine receptor (P14416 whole entry): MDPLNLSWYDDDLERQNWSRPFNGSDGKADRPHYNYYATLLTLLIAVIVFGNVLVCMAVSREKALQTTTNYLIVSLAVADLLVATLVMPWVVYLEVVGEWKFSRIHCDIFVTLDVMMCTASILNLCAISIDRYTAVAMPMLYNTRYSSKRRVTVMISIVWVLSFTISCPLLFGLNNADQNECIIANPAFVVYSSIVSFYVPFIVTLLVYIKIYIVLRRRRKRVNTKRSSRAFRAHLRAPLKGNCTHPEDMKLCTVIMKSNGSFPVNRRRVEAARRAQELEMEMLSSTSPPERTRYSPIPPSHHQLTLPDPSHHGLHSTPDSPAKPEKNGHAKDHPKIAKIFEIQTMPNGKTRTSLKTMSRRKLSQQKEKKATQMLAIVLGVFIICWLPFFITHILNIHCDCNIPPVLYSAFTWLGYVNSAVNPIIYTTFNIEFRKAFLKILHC
Sequence of D(1A) dopamine receptor (P21728 whole entry): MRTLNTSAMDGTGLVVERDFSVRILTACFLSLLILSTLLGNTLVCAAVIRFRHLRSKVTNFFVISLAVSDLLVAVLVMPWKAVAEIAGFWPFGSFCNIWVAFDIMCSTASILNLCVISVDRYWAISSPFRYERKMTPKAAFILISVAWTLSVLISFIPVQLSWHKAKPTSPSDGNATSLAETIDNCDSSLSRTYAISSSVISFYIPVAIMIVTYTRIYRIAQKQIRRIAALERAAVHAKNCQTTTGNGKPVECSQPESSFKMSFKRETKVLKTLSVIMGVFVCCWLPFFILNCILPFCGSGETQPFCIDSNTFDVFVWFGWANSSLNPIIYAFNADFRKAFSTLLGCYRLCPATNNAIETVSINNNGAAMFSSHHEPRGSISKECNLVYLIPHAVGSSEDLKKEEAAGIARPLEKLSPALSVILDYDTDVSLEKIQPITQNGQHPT
Sequence of Histamine H1 receptor (P35367 whole entry): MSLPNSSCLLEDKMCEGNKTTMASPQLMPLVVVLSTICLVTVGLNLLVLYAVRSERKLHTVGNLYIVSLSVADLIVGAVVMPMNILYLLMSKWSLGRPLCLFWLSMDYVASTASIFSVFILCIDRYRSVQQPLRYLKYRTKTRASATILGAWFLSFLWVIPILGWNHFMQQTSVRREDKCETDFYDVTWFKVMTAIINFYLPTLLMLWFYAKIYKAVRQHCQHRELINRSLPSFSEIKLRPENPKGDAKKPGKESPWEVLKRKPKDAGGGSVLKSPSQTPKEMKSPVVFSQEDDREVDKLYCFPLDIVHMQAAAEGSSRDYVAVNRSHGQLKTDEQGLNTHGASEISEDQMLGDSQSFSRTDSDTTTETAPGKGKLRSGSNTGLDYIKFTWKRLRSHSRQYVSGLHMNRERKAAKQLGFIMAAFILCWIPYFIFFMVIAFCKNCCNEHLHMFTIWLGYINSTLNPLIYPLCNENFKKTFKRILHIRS
Sequence of D(3) dopamine receptor (P35462 whole entry): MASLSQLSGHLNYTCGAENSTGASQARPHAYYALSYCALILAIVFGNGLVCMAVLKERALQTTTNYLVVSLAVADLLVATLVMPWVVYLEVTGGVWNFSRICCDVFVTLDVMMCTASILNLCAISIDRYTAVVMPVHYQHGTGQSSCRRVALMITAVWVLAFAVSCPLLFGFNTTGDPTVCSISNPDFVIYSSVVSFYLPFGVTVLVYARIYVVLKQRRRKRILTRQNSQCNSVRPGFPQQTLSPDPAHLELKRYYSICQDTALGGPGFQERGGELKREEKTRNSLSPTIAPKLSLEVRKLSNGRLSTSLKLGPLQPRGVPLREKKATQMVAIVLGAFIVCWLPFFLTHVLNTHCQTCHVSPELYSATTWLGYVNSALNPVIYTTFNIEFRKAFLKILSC

## CC1=CC(C)=[N+]2C1=C(c1ccc(OCCCN3CCCCC3)cc1)c1c(C)cc(C)n1[B-]2(F)F [BODILISANT]
[1]
  Ki: 1.49 µM
[2]
  Ki: 1.66 µM
[3]
  Ki: 7.48 µM
[4]
  Ki: 5.21 µM
[5]
  Ki: 12.5 µM
[6]
  Ki: 1.97 µM
[7]
  Ki: 0.00651 µM
